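Grown in 96-well plates, cells were treated for 48 hours with each compound at five concentrations. Insufficient inhibition: endpoint recorded as highest concentration tested. GI50: concentration for 50% inhibition of growth. TGI: total growth inhibition.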
Legend:
Assay in all cases: NCI-60 cell line screen, 48 h
OVCAR-8 ovarian = system: OVCAR-8 ovarian
MDA-MB-231 breast = system: MDA-MB-231 breast
NCI/ADR-RES ovarian = system: NCI/ADR-RES ovarian
HS 578T breast = system: HS 578T breast
786-0 renal = system: 786-0 renal
RXF 393 renal = system: RXF 393 renal
OVCAR-5 ovarian = system: OVCAR-5 ovarian
LOX IMVI melanoma = system: LOX IMVI melanoma
MDA-MB-435 = system: MDA-MB-435
NCI-H460 lung = system: NCI-H460 lung
TK-10 renal = system: TK-10 renal
HCT-15 colon = system: HCT-15 colon
SW-620 colon = system: SW-620 colon
HOP-62 NSCLC = system: HOP-62 NSCLC
SK-MEL-5 melanoma = system: SK-MEL-5 melanoma
UACC-62 melanoma = system: UACC-62 melanoma
SF-295 CNS = system: SF-295 CNS
OVCAR-4 ovarian = system: OVCAR-4 ovarian
HL-60(TB) leukemia = system: HL-60(TB) leukemia
UO-31 renal = system: UO-31 renal
SNB-75 CNS = system: SNB-75 CNS
UACC-257 melanoma = system: UACC-257 melanoma
OVCAR-3 ovarian = system: OVCAR-3 ovarian
HCC-2998 colon = system: HCC-2998 colon
ACHN renal = system: ACHN renal
MCF7 breast = system: MCF7 breast
MOLT-4 leukemia = system: MOLT-4 leukemia
A549 NSCLC = system: A549 NSCLC
SNB-19 CNS = system: SNB-19 CNS
SK-MEL-28 melanoma = system: SK-MEL-28 melanoma
T-47D breast = system: T-47D breast
NCI-H23 lung = system: NCI-H23 lung
CAKI-1 renal = system: CAKI-1 renal
CCRF-CEM leukemia = system: CCRF-CEM leukemia
SK-OV-3 ovarian = system: SK-OV-3 ovarian
IGROV1 ovarian = system: IGROV1 ovarian
RPMI-8226 leukemia = system: RPMI-8226 leukemia
SK-MEL-2 melanoma = system: SK-MEL-2 melanoma
COLO 205 colon = system: COLO 205 colon
SF-268 CNS = system: SF-268 CNS
SN12C renal = system: SN12C renal
U251 CNS = system: U251 CNS
HCT-116 colon = system: HCT-116 colon
MALME-3M melanoma = system: MALME-3M melanoma
SF-539 CNS = system: SF-539 CNS
K-562 leukemia = system: K-562 leukemia
A498 renal = system: A498 renal
HT29 colon = system: HT29 colon
PC-3 prostate = system: PC-3 prostate
EKVX NSCLC = system: EKVX NSCLC
NCI-H226 lung = system: NCI-H226 lung
M14 melanoma = system: M14 melanoma
KM12 colon = system: KM12 colon
BT-549 breast = system: BT-549 breast
NCI-H522 lung = system: NCI-H522 lung
DU-145 prostate = system: DU-145 prostate
SR leukemia = system: SR leukemia
HOP-92 NSCLC = system: HOP-92 NSCLC

## COc1ccc(CCN2COc3c([C@@H](C)CCC=C(C)C)ccc(C)c3C2)cc1OC
OVCAR-8 ovarian
  GI50: 4.21 µM
  TGI: 20.2 µM
MDA-MB-231 breast
  GI50: 2.76 µM
  TGI: 9.37 µM
NCI/ADR-RES ovarian
  GI50: 2.96 µM
  TGI: 9.51 µM
HS 578T breast
  GI50: 3.94 µM
  TGI: 17.3 µM
786-0 renal
  GI50: 1.98 µM
  TGI: 4.16 µM
RXF 393 renal
  GI50: 1.73 µM
  TGI: 4.85 µM
OVCAR-5 ovarian
  GI50: 8.53 µM
  TGI: 20.8 µM
LOX IMVI melanoma
  GI50: 1.77 µM
  TGI: 3.75 µM
MDA-MB-435
  GI50: 3.11 µM
  TGI: 10.9 µM
NCI-H460 lung
  GI50: 2.06 µM
  TGI: 4.3 µM
TK-10 renal
  GI50: 2.19 µM
  TGI: 5.95 µM
HCT-15 colon
  GI50: 2.84 µM
  TGI: 10.4 µM
SW-620 colon
  GI50: 1.91 µM
  TGI: 4.08 µM
HOP-62 NSCLC
  GI50: 1.86 µM
  TGI: 3.62 µM
SK-MEL-5 melanoma
  GI50: 1.64 µM
  TGI: 3.04 µM
UACC-62 melanoma
  GI50: 3.48 µM
  TGI: 14.6 µM
SF-295 CNS
  GI50: 2.02 µM
  TGI: 6.56 µM
OVCAR-4 ovarian
  GI50: 2.99 µM
  TGI: 16 µM
HL-60(TB) leukemia
  GI50: 4.11 µM
  TGI: 60.9 µM
UO-31 renal
  GI50: 2.45 µM
  TGI: 12.3 µM
SNB-75 CNS
  GI50: 12.5 µM
  TGI: 35.4 µM
UACC-257 melanoma
  GI50: 2.93 µM
  TGI: 10.9 µM
OVCAR-3 ovarian
  GI50: 3.55 µM
  TGI: 14.1 µM
HCC-2998 colon
  GI50: 1.59 µM
  TGI: 2.96 µM
ACHN renal
  GI50: 6.11 µM
  TGI: 20.2 µM
MCF7 breast
  GI50: 3.29 µM
  TGI: 11 µM
MOLT-4 leukemia
  GI50: 3.69 µM
  TGI: > 100 µM
A549 NSCLC
  GI50: 10.3 µM
  TGI: 31.5 µM
SNB-19 CNS
  GI50: 12.1 µM
  TGI: 42.8 µM
SK-MEL-28 melanoma
  GI50: 2.21 µM
  TGI: 4.94 µM
T-47D breast
  GI50: 1.78 µM
  TGI: 3.8 µM
NCI-H23 lung
  GI50: 2.55 µM
  TGI: 6.08 µM
CAKI-1 renal
  GI50: 2.73 µM
  TGI: 12.1 µM
CCRF-CEM leukemia
  GI50: 3.49 µM
  TGI: 21.1 µM
SK-OV-3 ovarian
  GI50: 11.8 µM
  TGI: 31.1 µM
IGROV1 ovarian
  GI50: 1.08 µM
  TGI: 3.52 µM
RPMI-8226 leukemia
  GI50: 2.09 µM
  TGI: 7.67 µM
SK-MEL-2 melanoma
  GI50: 1.88 µM
  TGI: 3.82 µM
COLO 205 colon
  GI50: 1.79 µM
  TGI: 3.19 µM
SF-268 CNS
  GI50: 1.45 µM
  TGI: 4.34 µM
SN12C renal
  GI50: 3.27 µM
  TGI: 13.5 µM
U251 CNS
  GI50: 1.91 µM
  TGI: 4.47 µM
HCT-116 colon
  GI50: 2.17 µM
  TGI: 4.94 µM
MALME-3M melanoma
  GI50: 1.53 µM
  TGI: 3.18 µM
SF-539 CNS
  GI50: 4.48 µM
  TGI: 15.9 µM
K-562 leukemia
  GI50: 3.7 µM
  TGI: 93.5 µM
A498 renal
  GI50: 1.96 µM
  TGI: 11.9 µM
HT29 colon
  GI50: 2.2 µM
  TGI: 5.73 µM
PC-3 prostate
  GI50: 1.95 µM
  TGI: 5.83 µM
EKVX NSCLC
  GI50: 5.14 µM
  TGI: 25.4 µM
NCI-H226 lung
  GI50: 8.64 µM
  TGI: 21.6 µM
M14 melanoma
  GI50: 1.69 µM
  TGI: 3.18 µM
KM12 colon
  GI50: 2.86 µM
  TGI: 9.64 µM

## CC(=O)N[C@H]1CSSC[C@@H](C(N)=O)NC(=O)[C@H](C(C)C)NC(=O)[C@H](C)NC(=O)[C@H](Cc2cnc[nH]2)NC1=O
OVCAR-8 ovarian
  GI50: > 100 µM
  TGI: > 100 µM
MDA-MB-231 breast
  GI50: > 100 µM
  TGI: > 100 µM
NCI/ADR-RES ovarian
  GI50: > 100 µM
  TGI: > 100 µM
786-0 renal
  GI50: > 100 µM
  TGI: > 100 µM
RXF 393 renal
  GI50: > 100 µM
  TGI: > 100 µM
OVCAR-5 ovarian
  GI50: > 100 µM
  TGI: > 100 µM
LOX IMVI melanoma
  GI50: > 100 µM
  TGI: > 100 µM
BT-549 breast
  GI50: > 100 µM
  TGI: > 100 µM
MDA-MB-435
  GI50: > 100 µM
  TGI: > 100 µM
NCI-H460 lung
  GI50: > 100 µM
  TGI: > 100 µM
TK-10 renal
  GI50: > 100 µM
  TGI: > 100 µM
HCT-15 colon
  GI50: > 100 µM
  TGI: > 100 µM
HOP-62 NSCLC
  GI50: > 100 µM
  TGI: > 100 µM
SK-MEL-5 melanoma
  GI50: > 100 µM
  TGI: > 100 µM
UACC-62 melanoma
  GI50: > 100 µM
  TGI: > 100 µM
SF-295 CNS
  GI50: > 100 µM
  TGI: > 100 µM
OVCAR-4 ovarian
  GI50: > 100 µM
  TGI: > 100 µM
NCI-H522 lung
  GI50: > 100 µM
  TGI: > 100 µM
HL-60(TB) leukemia
  GI50: > 100 µM
  TGI: > 100 µM
UO-31 renal
  GI50: > 100 µM
  TGI: > 100 µM
UACC-257 melanoma
  GI50: > 100 µM
  TGI: > 100 µM
OVCAR-3 ovarian
  GI50: > 100 µM
  TGI: > 100 µM
HCC-2998 colon
  GI50: > 100 µM
  TGI: > 100 µM
ACHN renal
  GI50: > 100 µM
  TGI: > 100 µM
MOLT-4 leukemia
  GI50: > 100 µM
  TGI: > 100 µM
A549 NSCLC
  GI50: > 100 µM
  TGI: > 100 µM
SNB-19 CNS
  GI50: > 100 µM
  TGI: > 100 µM
SK-MEL-28 melanoma
  GI50: > 100 µM
  TGI: > 100 µM
T-47D breast
  GI50: > 100 µM
  TGI: > 100 µM
NCI-H23 lung
  GI50: > 100 µM
  TGI: > 100 µM
CAKI-1 renal
  GI50: > 100 µM
  TGI: > 100 µM
CCRF-CEM leukemia
  GI50: 29.1 µM
  TGI: > 100 µM
SK-OV-3 ovarian
  GI50: > 100 µM
  TGI: > 100 µM
IGROV1 ovarian
  GI50: > 100 µM
  TGI: > 100 µM
RPMI-8226 leukemia
  GI50: > 100 µM
  TGI: > 100 µM
SK-MEL-2 melanoma
  GI50: > 100 µM
  TGI: > 100 µM
DU-145 prostate
  GI50: > 100 µM
  TGI: > 100 µM
SR leukemia
  GI50: > 100 µM
  TGI: > 100 µM
COLO 205 colon
  GI50: > 100 µM
  TGI: > 100 µM
SF-268 CNS
  GI50: > 100 µM
  TGI: > 100 µM
SN12C renal
  GI50: > 100 µM
  TGI: > 100 µM
U251 CNS
  GI50: > 100 µM
  TGI: > 100 µM
MALME-3M melanoma
  GI50: > 100 µM
  TGI: > 100 µM
SF-539 CNS
  GI50: > 100 µM
  TGI: > 100 µM
K-562 leukemia
  GI50: > 100 µM
  TGI: > 100 µM
HOP-92 NSCLC
  GI50: > 100 µM
  TGI: > 100 µM
HT29 colon
  GI50: > 100 µM
  TGI: > 100 µM
PC-3 prostate
  GI50: > 100 µM
  TGI: > 100 µM
EKVX NSCLC
  GI50: > 100 µM
  TGI: > 100 µM
NCI-H226 lung
  GI50: > 100 µM
  TGI: > 100 µM
M14 melanoma
  GI50: > 100 µM
  TGI: > 100 µM
KM12 colon
  GI50: > 100 µM
  TGI: > 100 µM

Reference: PubChem BioAssay (NCI)
